Laboratory results from the supplement of paper PMC10307832.

Legend:
Assay in all cases: relative viability (nuclei count vs DMSO), 5 days (fraction); higher = more cells survive
[1] = compound: CC1=C(CC(=O)O)c2cc(F)ccc2/C1=C\c1ccc([S+](C)[O-])cc1 [Sulindac] + CS(=O)(=O)N1CCN(Cc2cc3nc(-c4cccc5[nH]ncc45)nc(N4CCOCC4)c3s2)CC1 [Pictilisib] (partner 1 µM)
Method in brief: (§1)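 Each reported value is a median over duplicate plates. It expresses relative viability: treated-well nuclei count divided by vehicle-well nuclei count. Lung cancer cell lines in 1536-well plates were dosed by pin tool a day after seeding, alone with one drug or with a fixed anchor-drug dose plus five library-drug doses (not always all listed) in √10 steps, and nuclei were counted after 5 days.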

[2] = compound: O=c1[nH]cc(F)c(=O)[nH]1 [5-Fluorouracil] + CC1(C)CCC(c2ccc(Cl)cc2)=C(CN2CCN(c3ccc(C(=O)NS(=O)(=O)c4ccc(N[C@H](CCN5CCOCC5)CSc5ccccc5)c(S(=O)(=O)C(F)(F)F)c4)cc3)CC2)C1 [Navitoclax] (partner 0.5 µM)
Method in brief: as §1

[3] = compound: O=c1[nH]cc(F)c(=O)[nH]1 [5-Fluorouracil] + C[C@]1(O)C[C@@H](c2nc(-c3ccc4ccc(-c5ccccc5)nc4c3)c3c(N)nccn32)C1 [Linsitinib] (partner 1 µM)
Method in brief: as §1

[4] = compound: CC1=C(CC(=O)O)c2cc(F)ccc2/C1=C\c1ccc([S+](C)[O-])cc1 [Sulindac] + CC(=O)c1c(C)c2cnc(Nc3ccc(N4CCNCC4)cn3)nc2n(C2CCCC2)c1=O [Palbociclib] (partner 0.5 µM)
Method in brief: as §1

Cell Line | relative viability ([1]; first compound 0.08 µM) | relative viability ([1]; first compound 0.253 µM) | relative viability ([1]; first compound 0.8 µM) | relative viability ([1]; first compound 8 µM) | relative viability ([2]; first compound 0.02 µM) | relative viability ([2]; first compound 0.2 µM) | relative viability ([2]; first compound 0.6325 µM) | relative viability ([2]; first compound 2 µM) | relative viability ([3]; first compound 0.02 µM) | relative viability ([3]; first compound 0.2 µM) | relative viability ([3]; first compound 0.6325 µM) | relative viability ([3]; first compound 2 µM) | relative viability ([4]; first compound 0.08 µM) | relative viability ([4]; first compound 0.253 µM) | relative viability ([4]; first compound 0.8 µM) | relative viability ([4]; first compound 2.53 µM) | relative viability ([4]; first compound 8 µM) | relative viability ([1]; first compound 2.53 µM)
LCLC-97TM1 | 0.198 | 0.214 | 0.18 | 0.187 | 0.463 | 0.525 | 0.222 | 0.212 | 0.175 | 0.193 | 0.153 | 0.144 | 0.201 | 0.244 | 0.203 | 0.212 | 0.277 | –
NCI-H1299 | 0.671 | 0.9 | 0.651 | 0.878 | 1.07 | 1.1 | 1.06 | 0.895 | 1.09 | 0.982 | 0.825 | 0.59 | – | – | – | – | – | 0.778
NCI-H322M | 0.579 | 0.508 | 0.419 | 0.539 | 1.29 | 1.07 | 0.853 | 0.693 | 0.898 | 0.747 | 0.652 | 0.64 | 0.436 | 0.462 | 0.489 | 0.474 | 0.46 | 0.545
NCI-H1395 | 0.705 | 0.603 | 0.872 | 0.879 | 0.997 | 1.21 | 1.07 | 1.12 | 0.884 | 1.19 | 1.03 | 1.25 | 0.545 | 0.563 | 0.708 | 0.627 | 0.728 | 0.527
NCI-H2023 | 0.27 | 0.213 | 0.249 | 0.234 | 1.01 | 0.257 | 0.161 | 0.122 | 0.45 | 0.242 | 0.131 | 0.0929 | 0.387 | 0.429 | 0.362 | 0.415 | 0.454 | 0.222
NCI-H1651 | 0.751 | 0.672 | 0.416 | 0.599 | 1.09 | 0.9 | 0.574 | 0.42 | 0.973 | 0.859 | 0.602 | 0.468 | 0.493 | 0.471 | 0.483 | 0.554 | 0.578 | 0.621
HARA | 0.302 | 0.507 | – | 0.452 | 1.12 | 1.15 | 1.11 | 1.15 | 0.963 | 1.02 | 0.885 | 0.891 | 0.294 | 0.3 | 0.3 | 0.256 | 0.227 | 0.374
NCI-H1944 | 0.345 | 0.347 | 0.325 | 0.388 | 0.926 | 0.862 | 0.331 | 0.24 | 1.13 | 1.19 | 0.497 | 0.27 | 0.363 | 0.333 | 0.338 | 0.351 | 0.374 | 0.342
NCI-H2405 | 0.548 | 0.459 | 0.438 | 0.603 | 0.93 | 0.793 | 0.858 | 0.59 | 0.883 | 0.967 | 0.881 | 0.672 | 0.531 | 0.525 | 0.5 | 0.509 | 0.593 | 0.407
Calu-6 | 1.03 | 0.989 | 0.799 | 1.17 | 0.859 | 0.786 | 0.679 | 0.362 | 0.975 | 1.01 | 0.82 | 0.61 | – | – | – | – | – | 0.949
NCI-H1650 | 0.64 | 0.676 | 0.413 | 0.719 | 1.29 | 0.82 | 0.63 | 0.294 | – | – | – | – | 0.271 | 0.331 | 0.341 | 0.346 | 0.315 | 0.555
NCI-H1648 | – | – | – | – | – | – | – | – | – | – | – | – | 0.275 | 0.268 | – | 0.242 | 0.282 | –
ChaGo-K-1 | 0.808 | 0.645 | 0.74 | 1.45 | 0.956 | 1.07 | 0.672 | 0.685 | – | – | – | – | 1.09 | 0.918 | 0.838 | 0.924 | 0.988 | 0.647
NCI-H661 | 0.421 | 0.412 | 0.358 | 0.461 | – | – | – | – | 0.466 | 0.731 | 0.654 | 0.522 | 0.405 | 0.433 | 0.458 | 0.376 | 0.449 | 0.514
NCI-H522 | – | – | – | – | – | – | – | – | – | – | – | – | 0.972 | 0.955 | 0.818 | 1.17 | 1.04 | –
ABC-1 | 0.987 | 0.849 | 0.539 | 0.979 | – | – | – | – | 0.739 | 0.987 | 0.714 | 0.748 | 0.73 | 0.946 | 0.514 | 0.475 | 0.639 | 0.542
SW 900 | – | – | – | – | – | – | – | – | – | – | – | – | 0.479 | 0.584 | – | – | 0.496 | –
NCI-H650 | 0.839 | 0.889 | 0.785 | 0.912 | – | – | – | – | 0.866 | 0.691 | 0.511 | 0.394 | 0.313 | 0.347 | 0.32 | 0.28 | 0.402 | 0.915
IA-LM | 0.439 | 0.371 | – | 0.419 | 0.934 | 0.328 | 0.179 | 0.178 | 0.597 | 0.485 | 0.175 | 0.213 | – | – | – | – | – | 0.352
A549 | 0.573 | 0.528 | 0.327 | 0.857 | 1.2 | 0.754 | 0.244 | 0.114 | 0.633 | 0.652 | 0.301 | 0.119 | – | – | – | – | – | 0.467
LCLC-103H | 0.757 | 0.612 | 0.545 | 0.748 | – | – | – | – | 1.16 | 1.04 | 0.955 | 0.645 | 0.465 | 0.496 | 0.478 | 0.453 | 0.424 | 0.642
NCI-H596 | 0.391 | 0.378 | 0.413 | 0.411 | 0.804 | 0.753 | 0.566 | 0.347 | 1.02 | 0.834 | 0.689 | 0.567 | – | – | – | – | – | 0.37
NCI-H358 | 0.262 | 0.324 | 0.316 | 0.352 | – | – | – | – | 0.704 | 0.883 | 0.867 | 0.483 | 0.135 | 0.139 | 0.129 | 0.139 | 0.136 | 0.269
